Data reported in ChEMBL document CHEMBL3045535, “Evaluation of lufenuron as a chemosterilant against fruit flies of the genus Anastrepha (Diptera: Tephritidae)” (2010).
Activity calls are given as the source filed them. The rule behind the calls is not given here.

Experiments:
Anastrepha ludens [1] = assay: Effect on fecundity in 7 days old adult female of Anastrepha ludens at 30 mg/g treated with diet after 24 hr in presence of untreated adult male of Anastrepha ludens; type: functional, organism-based
Anastrepha striata [2] = assay: Reduction of fertility in 7 days old adult of Anastrepha striata assessed as reduction of egg hatching at 30 mg/g treated with diet measured after 3 days oviposition; type: functional; parameters: scale not given: the % may be the effect or the level left
Anastrepha striata [3] = assay: Reduction of fertility in 7 days old adult of Anastrepha striata assessed as reduction of egg hatching at 30 mg/g treated with diet measured after 1 day oviposition; type: functional; parameters: scale not given: the % may be the effect or the level left
Anastrepha ludens [4] = assay: Reduction of fertility in 7 days old adult of Anastrepha ludens assessed as reduction of egg hatching at 10 mg/g treated with diet measured after 11 days oviposition; type: functional; parameters: scale not given: the % may be the effect or the level left
Anastrepha ludens [5] = assay: Reduction of fertility in 7 days old adult of Anastrepha ludens assessed as reduction of egg hatching at 5 mg/g treated with diet measured after 5 days oviposition; type: functional; parameters: scale not given: the % may be the effect or the level left
Anastrepha ludens [6] = assay: Reduction of fertility in 7 days old adult of Anastrepha ludens assessed as reduction of egg hatching at 1 mg/g treated with diet measured after 11 days oviposition; type: functional; parameters: scale not given: the % may be the effect or the level left
Anastrepha ludens [7] = assay: Reduction of fertility in 7 days old adult of Anastrepha ludens assessed as reduction of egg hatching at 1 mg/g treated with diet measured after 7 days oviposition; type: functional; parameters: scale not given: the % may be the effect or the level left
Anastrepha ludens [8] = assay: Reduction of fertility in 7 days old adult of Anastrepha ludens assessed as reduction of egg hatching at 0.1 mg/g treated with diet measured after 3 days oviposition; type: functional; parameters: scale not given: the % may be the effect or the level left
Anastrepha obliqua [9] = assay: Reduction of fertility in 7 days old adult of Anastrepha obliqua assessed as reduction of egg hatching at 1 mg/g treated with diet measured after 11 days oviposition; type: functional; parameters: scale not given: the % may be the effect or the level left
Anastrepha ludens [10] = assay: Reduction of fertility in 7 days old adult of Anastrepha ludens assessed as reduction of egg hatching at 0.5 mg/g treated with diet measured after 1 day oviposition; type: functional; parameters: scale not given: the % may be the effect or the level left
Anastrepha ludens [11] = assay: Reduction of fertility in 7 days old adult of Anastrepha ludens assessed as reduction of egg hatching at 0.1 mg/g treated with diet measured after 7 days oviposition; type: functional; parameters: scale not given: the % may be the effect or the level left
Anastrepha serpentina [12] = assay: Reduction of fertility in 7 days old adult of Anastrepha serpentina assessed as reduction of egg hatching at 0.5 mg/g treated with diet measured after 1 day oviposition; type: functional; parameters: scale not given: the % may be the effect or the level left
Anastrepha serpentina [13] = assay: Reduction of fertility in 7 days old adult of Anastrepha serpentina assessed as reduction of egg hatching at 0.1 mg/g treated with diet measured after 9 days oviposition; type: functional; parameters: scale not given: the % may be the effect or the level left
Anastrepha serpentina [14] = assay: Reduction of fertility in 7 days old adult of Anastrepha serpentina assessed as reduction of egg hatching at 0.1 mg/g treated with diet measured after 7 days oviposition; type: functional; parameters: scale not given: the % may be the effect or the level left
Anastrepha serpentina [15] = assay: Reduction of fertility in 7 days old adult of Anastrepha serpentina assessed as reduction of egg hatching at 0.1 mg/g treated with diet measured after 3 days oviposition; type: functional; parameters: scale not given: the % may be the effect or the level left
Anastrepha obliqua [16] = assay: Reduction of fertility in 7 days old adult of Anastrepha obliqua assessed as reduction of egg hatching at 0.1 mg/g treated with diet measured after 11 days oviposition; type: functional; parameters: scale not given: the % may be the effect or the level left
Anastrepha obliqua [17] = assay: Reduction of fertility in 7 days old adult of Anastrepha obliqua assessed as reduction of egg hatching at 0.5 mg/g treated with diet measured after 5 days oviposition; type: functional; parameters: scale not given: the % may be the effect or the level left
Anastrepha obliqua [18] = assay: Reduction of fertility in 7 days old adult of Anastrepha obliqua assessed as reduction of egg hatching at 0.1 mg/g treated with diet measured after 3 days oviposition; type: functional; parameters: scale not given: the % may be the effect or the level left
Anastrepha obliqua [19] = assay: Reduction of fertility in 7 days old adult of Anastrepha obliqua assessed as reduction of egg hatching at 0.1 mg/g treated with diet measured after 1 day oviposition; type: functional; parameters: scale not given: the % may be the effect or the level left
Anastrepha ludens [20] = assay: Reduction of fertility in 7 days old adult of Anastrepha ludens assessed as reduction of egg hatching at 30 mg/g treated with diet measured after 9 days oviposition; type: functional; parameters: scale not given: the % may be the effect or the level left
Anastrepha striata [21] = assay: Reduction of fertility in 7 days old adult of Anastrepha striata assessed as reduction of egg hatching at 5 mg/g treated with diet measured after 1 day oviposition; type: functional; parameters: scale not given: the % may be the effect or the level left
Anastrepha striata [22] = assay: Reduction of fertility in 7 days old adult of Anastrepha striata assessed as reduction of egg hatching at 1 mg/g treated with diet measured after 7 days oviposition; type: functional; parameters: scale not given: the % may be the effect or the level left
Anastrepha striata [23] = assay: Reduction of fertility in 7 days old adult of Anastrepha striata assessed as reduction of egg hatching at 0.5 mg/g treated with diet measured after 9 days oviposition; type: functional; parameters: scale not given: the % may be the effect or the level left
Anastrepha striata [24] = assay: Reduction of fertility in 7 days old adult of Anastrepha striata assessed as reduction of egg hatching at 0.5 mg/g treated with diet measured after 7 days oviposition; type: functional; parameters: scale not given: the % may be the effect or the level left
Anastrepha striata [25] = assay: Reduction of fertility in 7 days old adult of Anastrepha striata assessed as reduction of egg hatching at 0.5 mg/g treated with diet measured after 5 days oviposition; type: functional; parameters: scale not given: the % may be the effect or the level left
Anastrepha striata [26] = assay: Reduction of fertility in 7 days old adult of Anastrepha striata assessed as reduction of egg hatching at 0.1 mg/g treated with diet measured after 9 days oviposition; type: functional; parameters: scale not given: the % may be the effect or the level left
Anastrepha serpentina [27] = assay: Reduction of fertility in 7 days old adult of Anastrepha serpentina assessed as reduction of egg hatching at 10 mg/g treated with diet measured after 11 days oviposition; type: functional; parameters: scale not given: the % may be the effect or the level left
Anastrepha serpentina [28] = assay: Reduction of fertility in 7 days old adult of Anastrepha serpentina assessed as reduction of egg hatching at 10 mg/g treated with diet measured after 3 days oviposition; type: functional; parameters: scale not given: the % may be the effect or the level left
Anastrepha serpentina [29] = assay: Reduction of fertility in 7 days old adult of Anastrepha serpentina assessed as reduction of egg hatching at 5 mg/g treated with diet measured after 9 days oviposition; type: functional; parameters: scale not given: the % may be the effect or the level left
Anastrepha striata [30] = assay: Reduction of fertility in 7 days old adult of Anastrepha striata assessed as reduction of egg hatching at 10 mg/g treated with diet measured after 5 days oviposition; type: functional; parameters: scale not given: the % may be the effect or the level left
Anastrepha striata [31] = assay: Reduction of fertility in 7 days old adult of Anastrepha striata assessed as reduction of egg hatching at 10 mg/g treated with diet measured after 7 days oviposition; type: functional; parameters: scale not given: the % may be the effect or the level left
Anastrepha striata [32] = assay: Reduction of fertility in 7 days old adult of Anastrepha striata assessed as reduction of egg hatching at 10 mg/g treated with diet measured after 1 day oviposition; type: functional; parameters: scale not given: the % may be the effect or the level left
Anastrepha striata [33] = assay: Reduction of fertility in 7 days old adult of Anastrepha striata assessed as reduction of egg hatching at 5 mg/g treated with diet measured after 11 days oviposition; type: functional; parameters: scale not given: the % may be the effect or the level left
Anastrepha striata [34] = assay: Reduction of fertility in 7 days old adult of Anastrepha striata assessed as reduction of egg hatching at 5 mg/g treated with diet measured after 7 days oviposition; type: functional; parameters: scale not given: the % may be the effect or the level left
Anastrepha obliqua [35] = assay: Effect on fertility in 7 days old adult male of Anastrepha obliqua at 30 mg/g treated with diet after 24 hr in presence of untreated adult female of Anastrepha obliqua; type: functional, organism-based
Anastrepha ludens [36] = assay: Effect on fertility in 7 days old adult male of Anastrepha ludens at 30 mg/g treated with diet after 24 hr in presence of untreated adult female of Anastrepha ludens; type: functional, organism-based
Anastrepha serpentina [37] = assay: Effect on fertility in 7 days old adult female of Anastrepha serpentina at 30 mg/g treated with diet after 24 hr in presence of untreated adult male of Anastrepha serpentina; type: functional, organism-based
Anastrepha obliqua [38] = assay: Effect on fertility in 7 days old adult female of Anastrepha obliqua at 30 mg/g treated with diet after 24 hr in presence of untreated adult male of Anastrepha obliqua; type: functional, organism-based
Anastrepha striata [39] = assay: Effect on fecundity in 7 days old adult female of Anastrepha striata at 30 mg/g treated with diet after 24 hr in presence of untreated adult male of Anastrepha striata; type: functional, organism-based
Anastrepha serpentina [40] = assay: Effect on fecundity in 7 days old adult female of Anastrepha serpentina at 30 mg/g treated with diet after 24 hr in presence of untreated adult male of Anastrepha serpentina; type: functional, organism-based

O=C(NC(=O)c1c(F)cccc1F)Nc1cc(Cl)c(OC(F)(F)C(F)C(F)(F)F)cc1Cl (racemic) [LUFENURON]
Activity (Anastrepha ludens [1]): inactive
Activity (Anastrepha striata [2]): 8.7%
Activity (Anastrepha striata [3]): 8.7%
Activity (Anastrepha ludens [4]): 16.7%
Activity (Anastrepha ludens [5]): 20%
Activity (Anastrepha ludens [6]): 40%
Activity (Anastrepha ludens [7]): 20%
Activity (Anastrepha ludens [8]): 18.7%
Activity (Anastrepha obliqua [9]): 0.7%
Activity (Anastrepha ludens [10]): 8.7%
Activity (Anastrepha ludens [11]): 43.3%
Activity (Anastrepha serpentina [12]): 88.3%
Activity (Anastrepha serpentina [13]): 81.7%
Activity (Anastrepha serpentina [14]): 96.7%
Activity (Anastrepha serpentina [15]): 95%
Activity (Anastrepha obliqua [16]): 10.7%
Activity (Anastrepha obliqua [17]): 0%
Activity (Anastrepha obliqua [18]): 7.3%
Activity (Anastrepha obliqua [19]): 14.7%
Activity (Anastrepha ludens [20]): 15.3%
Activity (Anastrepha striata [21]): 3.3%
Activity (Anastrepha striata [22]): 1.3%
Activity (Anastrepha striata [23]): 40.7%
Activity (Anastrepha striata [24]): 19.3%
Activity (Anastrepha striata [25]): 14%
Activity (Anastrepha striata [26]): 70.7%
Activity (Anastrepha serpentina [27]): 79.3%
Activity (Anastrepha serpentina [28]): 34.4%
Activity (Anastrepha serpentina [29]): 83.3%
Activity (Anastrepha striata [30]): 2%
Activity (Anastrepha striata [31]): 0%
Activity (Anastrepha striata [32]): 2%
Activity (Anastrepha striata [33]): 6.7%
Activity (Anastrepha striata [34]): 0.7%
Activity (Anastrepha obliqua [35]): inactive
Activity (Anastrepha ludens [36]): inactive
Activity (Anastrepha serpentina [37]): inactive
Activity (Anastrepha obliqua [38]): inactive
Activity (Anastrepha striata [39]): inactive
Activity (Anastrepha serpentina [40]): inactive
